The values below come from patent publication US8193333B2, “Cancer therapy using Bcl-Xl-specific siNA” (Centre Regional de Lutte Contre le Cancer-Centre Francois …, priority 2006, dated 2012).

For data set [1], the system named is subcutaneous SKOV3 human ovarian carcinoma. Put plainly: Growth of subcutaneous SKOV3 tumours in nude mice. The class given is in vivo. Conditions: 25 μg/kg intraperitoneally once a week, FIG. 16. How it is done: PEI/siRNA complexes were prepared in 5% glucose solution with a ratio of L-PEI nitrogen to siRNA phosphate of 5:1. Various amounts of siRNA (125, 625 or 2500 ng) and L-PEI were diluted separately, and PEI was then added to the siRNA. The solution was quickly homogenized and left for 15 min at room temperature. It was injected intraperitoneally in mice as a 0.5 ml 5% glucose solution.
SKOV3 cells (2×10^7/500 μL) were inoculated subcutaneously into the right flank of nude mice, and establishment of palpable tumours was determined. The tumour volume was calculated as v=L×l^2×p/6 where L and l represent the larger and the smaller tumour diameter measured twice week with digital caliper. When tumours reached an average volume of ˜100 mm^3 (on day 10), three experimental groups (three mice per group) were tested as follow: (a) untreated, (b) siXL1 naked (25 μg/kg), and (c) siXL1-PEI (25 μg/kg). The samples were diluted in 0.5 ml 0.9% NaCl solution (siRNA naked) or in 0.5 ml 5% glucose solution (siRNA-PEI) and injected intraperitoneally. This process was repeated once a week.

Another data set has as its system Bcl-XL protein. In words: Immunohistochemical analysis of Bcl-XL protein in SKOV3 peritoneal tumour nodes of mice. The class given is in vivo, human. Conditions: naked siXL1 5, 25 or 100 μg/kg, 3 days after injection. The method, then: […] […] The solution was quickly homogenized and left for 15 min at room temperature. It was injected intraperitoneally in mice as a 0.5 ml 5% glucose solution.
[…] Mice were killed 3 days after transfection and each organ (kidney, liver, spleen, pancreas, ovary, peritoneum, diaphragm, lung, heart and skeletal muscle) was washed with saline solution. Parts of each organs were either frozen in liquid nitrogen and stored at −80° C. for RT-PCR and western blot analysis, or formalin-fixed and paraffin-embedded for histological examination and immunohistochemical analysis.
Immunohistochemical staining was performed on paraffin-embedded material. To perform immunostaining, 4 μm-thick sections were dewaxed, rehydrated and treated 30 minutes by high-temperature-heating antigen retrieval technique in citrate buffer 0.1M pH6 to unmask epitopes. Sections were incubated 1 hour at room temperature with polyclonal antibody anti-Bcl-XL/S (S18) obtained from Santa Cruz (TEBU-BIO) and diluted 1:50. After washes, slides were incubated with Rabbit IgG Vectastain ABC Kit (VECTOR, ABCYS) according to the manufacturer instructions.

The next data set has as its system Bcl-XL mRNA. In words: RT-PCR of Bcl-XL mRNA in SKOV3 cells after siRNA transfection. Format: cell-based, human. Conditions: 72 h after transfection, FIG. 1A. How it is done: The siRNA duplexes were transfected according to the recommended procedure by using the Oligofectamine Reagent and Opti-MEM medium (INVITROGEN LIFE TECHNOLOGIES). 30-40% confluent cells were transfected in 25 cm^2 flasks with different concentrations of siXL1, siRNA Mcl-1 or siRNA control and incubated at 37° C., 5% CO2 for 4 hours. Next, 20% fetal bovin serum was added to reach a final concentration of 10% foetal bovin serum in the 25 cm^2 flask.
One μg of total RNA, extracted by RNAeasy kit (QIAGEN), was reverse-transcripted with 200 units Omniscript reverse transcriptase (QIAGEN) in first strand reaction conditions recommended by the manufacturer. The targeted cDNA were amplified using the following pair of primers, Bcl-XL/S forward 5′-[…]-3′ (SEQ ID NO: 11) and Bcl-XL/S reverse 5′-gtagagtggatggtcagtg-3′ (SEQ ID NO:12; Bargou et al., Int. J. Cancer, 1995, 16, 854-859), and amplified under the following cycling conditions: pre-incubation 94° C. for 5 min then 94° C. for 40 sec, 58° C. for 60 sec and 72° C. for 40 sec for 30 cycles, post-incubation 72° C. for 3 min within a Mastercycleur Gradient (EPPENDORF). The use of these primers allows the migration of Bcl-Xs and Bcl-XL PCR products as two distinct bands of respectively 576 and 765 bp.

As for “siXL1: double-stranded siRNA blocking Bcl-XL expression; sense 5′-auuggugagucggaucgcatt-3′ (SEQ ID NO: 5), anti-sense 5′-ugcgauccgacucaccaautt-3′ (SEQ ID NO: 6) (sense AUUGGUGAGUCGGAUCGCATT; antisense UGCGAUCCGACUCACCAAUTT; chemistry not given here)”, the “effect on subcutaneous tumor growth” value in data set [1] is “almost no effect”. For the same substance, in the data set with Bcl-XL protein, the “Bcl-XL labelling intensity in tumour nodes” value is “decreases as the siXL1 dose increases”. Further, the “Bcl-XL mRNA level (RT-PCR)” value in the data set with Bcl-XL mRNA was “greatly reduces”.
